This assay concerns the target α7-subtype of nicotinic receptors (Rattus norvegicus, UniProt Q05941). Kind of assay: biochemical. The assay is classed as binding.

SMILES strings stand for the structures. Structures can show the parent of a compound that is named as a salt.

Chain of α7-subtype of nicotinic receptors (Q05941 23-502): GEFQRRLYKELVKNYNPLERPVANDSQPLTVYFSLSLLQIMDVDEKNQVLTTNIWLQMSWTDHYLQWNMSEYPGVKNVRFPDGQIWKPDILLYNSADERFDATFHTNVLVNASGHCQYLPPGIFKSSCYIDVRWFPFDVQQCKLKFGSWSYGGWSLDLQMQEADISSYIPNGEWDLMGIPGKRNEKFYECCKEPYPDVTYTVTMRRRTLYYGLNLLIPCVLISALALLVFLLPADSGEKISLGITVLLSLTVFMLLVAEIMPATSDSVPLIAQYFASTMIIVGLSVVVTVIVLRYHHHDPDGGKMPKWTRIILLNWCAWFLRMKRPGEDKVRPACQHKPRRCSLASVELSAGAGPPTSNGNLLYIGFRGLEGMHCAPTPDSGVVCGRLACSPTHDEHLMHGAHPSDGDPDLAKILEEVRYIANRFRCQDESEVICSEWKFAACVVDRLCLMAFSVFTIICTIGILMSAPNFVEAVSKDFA

On to `c1cc2c(c(-c3nnc(N4CCN5CCC4CC5)o3)c1)OCO2` [Compound 1, 4-(5-Benzo[1,3]dioxol-4-yl-[1,3,4]oxadiazol-2-yl)-1,4-diaza-bicyclo[3.2.2]nonane fumaric acid salt], for which the IC50 (as a rule, the concentration that gives 50% inhibition) worked out at 22 nM.

Source of the values: patent US20120238553A1 (priority 2009, published 2012).
